Reference: ChEMBL document CHEMBL1201862, “PubChem BioAssay data set” (2004)
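Assay format: 96-well plates, 48-hour exposure. The concentration for 50% growth inhibition is given as GI50.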 The source made the active and inactive calls. Cut-off read from the data, not from the text of the source: active = GI50 up to about 1.1 µM and inactive = higher.

Tests used:
Assay in all cases: inhibition of tumour cell growth, NCI panel, 48 h
[1] = test system: SN12C
[2] = test system: SK-MEL-28
[3] = test system: DU-145
[4] = test system: IGROV-1
[5] = test system: UO-31
[6] = test system: SR
[7] = test system: NCI-H460
[8] = test system: RXF 393
[9] = test system: UACC-62
[10] = test system: SK-OV-3
[11] = test system: Hs-578T
[12] = test system: NCI/ADR-RES
[13] = test system: OVCAR-5
[14] = test system: K562
[15] = test system: ACHN
[16] = test system: SF-268
[17] = test system: PC-3
[18] = test system: U-251
[19] = test system: TK-10
[20] = test system: OVCAR-8
[21] = test system: HCC 2998
[22] = test system: MDA-N
[23] = test system: RPMI-8226
[24] = test system: SK-MEL-2
[25] = test system: HOP-62
[26] = test system: MDA-MB-435
[27] = test system: CAKI-1
[28] = test system: SK-MEL-5
[29] = test system: A549
[30] = test system: UACC-257
[31] = test system: SF-295
[32] = test system: SW-620
[33] = test system: MOLT-4
[34] = test system: MCF7
[35] = test system: COLO 205
[36] = test system: HCT-15
[37] = test system: NCI-H226
[38] = test system: NCI-H522
[39] = test system: EKVX
[40] = test system: CCRF-CEM
[41] = test system: MDA-MB-231
[42] = test system: SNB-75
[43] = test system: T47D
[44] = test system: BT-549
[45] = test system: NCI-H23
[46] = test system: LOX IMVI
[47] = test system: OVCAR-3
[48] = test system: HCT-116
[49] = test system: 786-0
[50] = test system: HT-29
[51] = test system: M14
[52] = test system: HL-60
[53] = test system: OVCAR-4
[54] = test system: SF-539
[55] = test system: KM12
[56] = test system: Malme-3M
[57] = test system: SNB-19
[58] = test system: A498
[59] = test system: HOP-92

## CCOC(=O)C(C)NC(=O)C(C)NC(=O)C(C)NC(=O)C(C)NC(=O)C(C)NC(=O)OCc1ccccc1 (centres undefined)
[1]
  GI50: > 100 µM (inactive)
[2]
  GI50: > 100 µM (inactive)
[3]
  GI50: > 100 µM (inactive)
[4]
  GI50: > 100 µM (inactive)
[5]
  GI50: > 100 µM (inactive)
[6]
  GI50: > 100 µM (inactive)
[7]
  GI50: > 100 µM (inactive)
[8]
  GI50: > 100 µM (inactive)
[9]
  GI50: > 100 µM (inactive)
[10]
  GI50: > 100 µM (inactive)
[11]
  GI50: > 100 µM (inactive)
[12]
  GI50: > 100 µM (inactive)
[13]
  GI50: > 100 µM (inactive)
[14]
  GI50: > 100 µM (inactive)
[15]
  GI50: > 100 µM (inactive)
[16]
  GI50: > 100 µM (inactive)
[17]
  GI50: > 100 µM (inactive)
[18]
  GI50: > 100 µM (inactive)
[19]
  GI50: > 100 µM (inactive)
[20]
  GI50: > 100 µM (inactive)
[21]
  GI50: > 100 µM (inactive)
[22]
  GI50: > 100 µM (inactive)
[23]
  GI50: > 100 µM (inactive)
[24]
  GI50: > 100 µM (inactive)
[25]
  GI50: > 100 µM (inactive)
[26]
  GI50: > 100 µM (inactive)
[27]
  GI50: > 100 µM (inactive)
[28]
  GI50: > 100 µM (inactive)
[29]
  GI50: > 100 µM (inactive)
[30]
  GI50: > 100 µM (inactive)
[31]
  GI50: > 100 µM (inactive)
[32]
  GI50: > 100 µM (inactive)
[33]
  GI50: > 100 µM (inactive)
[34]
  GI50: > 100 µM (inactive)
[35]
  GI50: > 100 µM (inactive)
[36]
  GI50: > 100 µM
[37]
  GI50: > 100 µM (inactive)
[38]
  GI50: > 100 µM (inactive)
[39]
  GI50: > 100 µM (inactive)
[40]
  GI50: > 100 µM (inactive)
[41]
  GI50: > 100 µM (inactive)
[42]
  GI50: 78.3 µM (inactive)
[43]
  GI50: > 100 µM (inactive)
[44]
  GI50: > 100 µM (inactive)
[45]
  GI50: > 100 µM (inactive)
[46]
  GI50: > 100 µM (inactive)
[47]
  GI50: > 100 µM (inactive)
[48]
  GI50: > 100 µM (inactive)
[49]
  GI50: > 100 µM (inactive)
[50]
  GI50: > 100 µM (inactive)
[51]
  GI50: > 100 µM (inactive)
[52]
  GI50: > 100 µM (inactive)
[53]
  GI50: > 100 µM (inactive)
[54]
  GI50: > 100 µM (inactive)
[55]
  GI50: > 100 µM (inactive)
[56]
  GI50: > 100 µM (inactive)
[57]
  GI50: > 100 µM (inactive)

## Oc1ccc(-c2nc(-c3cccnc3)c(-c3ccc(Cl)cc3)[nH]2)cc1O
[1]
  GI50: 13.2 µM (inactive)
[2]
  GI50: 17.5 µM (inactive)
[3]
  GI50: 22 µM (inactive)
[4]
  GI50: 4.34 µM (inactive)
[5]
  GI50: 12.8 µM (inactive)
[6]
  GI50: > 100 µM (inactive)
[8]
  GI50: 12.7 µM (inactive)
[9]
  GI50: 11.2 µM (inactive)
[10]
  GI50: 12.4 µM (inactive)
[11]
  GI50: 12.2 µM (inactive)
[12]
  GI50: 14.1 µM (inactive)
[13]
  GI50: 18.7 µM (inactive)
[14]
  GI50: > 100 µM (inactive)
[15]
  GI50: 9.95 µM (inactive)
[16]
  GI50: 11.5 µM (inactive)
[17]
  GI50: 9.2 µM (inactive)
[18]
  GI50: 11 µM (inactive)
[19]
  GI50: 10.4 µM (inactive)
[20]
  GI50: 11.9 µM (inactive)
[21]
  GI50: 13.7 µM (inactive)
[22]
  GI50: 11.7 µM (inactive)
[23]
  GI50: > 100 µM (inactive)
[24]
  GI50: 17.8 µM (inactive)
[25]
  GI50: 12.4 µM (inactive)
[26]
  GI50: 13.8 µM (inactive)
[27]
  GI50: 15.1 µM (inactive)
[28]
  GI50: 13 µM (inactive)
[29]
  GI50: 20.1 µM (inactive)
[30]
  GI50: 15.1 µM (inactive)
[31]
  GI50: 16.2 µM (inactive)
[32]
  GI50: 12.4 µM (inactive)
[33]
  GI50: 3.78 µM (inactive)
[34]
  GI50: 11.5 µM (inactive)
[35]
  GI50: 13.9 µM (inactive)
[36]
  GI50: 10.3 µM
[37]
  GI50: 16.2 µM (inactive)
[38]
  GI50: 1.13 µM (inactive)
[39]
  GI50: 18 µM (inactive)
[40]
  GI50: 4.48 µM (inactive)
[41]
  GI50: 17.3 µM (inactive)
[42]
  GI50: 6.05 µM (inactive)
[43]
  GI50: 11.4 µM (inactive)
[44]
  GI50: 10 µM (inactive)
[45]
  GI50: 11.7 µM (inactive)
[46]
  GI50: 9.82 µM (inactive)
[47]
  GI50: 3.43 µM (inactive)
[48]
  GI50: 11.7 µM (inactive)
[49]
  GI50: 12 µM (inactive)
[50]
  GI50: 14.6 µM (inactive)
[51]
  GI50: 13.6 µM (inactive)
[52]
  GI50: 5.05 µM (inactive)
[53]
  GI50: 16.1 µM (inactive)
[55]
  GI50: 8.97 µM (inactive)
[56]
  GI50: 14 µM (inactive)
[57]
  GI50: 13 µM (inactive)

## Nc1nc2c(c(-c3cccc(Cl)c3)n1)COC/C2=C\c1cccc(Cl)c1
[1]
  GI50: > 100 µM (inactive)
[2]
  GI50: > 100 µM (inactive)
[3]
  GI50: 80.2 µM (inactive)
[4]
  GI50: 94.2 µM (inactive)
[5]
  GI50: 25 µM (inactive)
[7]
  GI50: > 100 µM (inactive)
[8]
  GI50: > 100 µM (inactive)
[9]
  GI50: > 100 µM (inactive)
[10]
  GI50: > 100 µM (inactive)
[11]
  GI50: 45.6 µM (inactive)
[12]
  GI50: > 100 µM (inactive)
[13]
  GI50: > 100 µM (inactive)
[14]
  GI50: > 100 µM (inactive)
[15]
  GI50: > 100 µM (inactive)
[16]
  GI50: > 100 µM (inactive)
[17]
  GI50: > 100 µM (inactive)
[18]
  GI50: > 100 µM (inactive)
[19]
  GI50: 41.8 µM (inactive)
[20]
  GI50: > 100 µM (inactive)
[21]
  GI50: 56.8 µM (inactive)
[22]
  GI50: > 100 µM (inactive)
[23]
  GI50: > 100 µM (inactive)
[58]
  GI50: > 100 µM (inactive)
[24]
  GI50: > 100 µM (inactive)
[25]
  GI50: > 100 µM (inactive)
[26]
  GI50: > 100 µM (inactive)
[27]
  GI50: > 100 µM (inactive)
[28]
  GI50: > 100 µM (inactive)
[30]
  GI50: 47.2 µM (inactive)
[31]
  GI50: > 100 µM (inactive)
[32]
  GI50: > 100 µM (inactive)
[33]
  GI50: > 100 µM (inactive)
[34]
  GI50: > 100 µM (inactive)
[35]
  GI50: > 100 µM (inactive)
[59]
  GI50: > 100 µM (inactive)
[36]
  GI50: > 100 µM
[37]
  GI50: > 100 µM (inactive)
[38]
  GI50: > 100 µM (inactive)
[39]
  GI50: > 100 µM (inactive)
[40]
  GI50: > 100 µM (inactive)
[41]
  GI50: 52.7 µM (inactive)
[42]
  GI50: 22.9 µM (inactive)
[43]
  GI50: 82.6 µM (inactive)
[44]
  GI50: > 100 µM (inactive)
[45]
  GI50: > 100 µM (inactive)
[46]
  GI50: > 100 µM (inactive)
[47]
  GI50: > 100 µM (inactive)
[48]
  GI50: > 100 µM (inactive)
[49]
  GI50: 15.6 µM (inactive)
[50]
  GI50: > 100 µM (inactive)
[51]
  GI50: > 100 µM (inactive)
[52]
  GI50: > 100 µM (inactive)
[53]
  GI50: > 100 µM (inactive)
[54]
  GI50: > 100 µM (inactive)
[55]
  GI50: 85.1 µM (inactive)
[56]
  GI50: 37.9 µM (inactive)
[57]
  GI50: > 100 µM (inactive)
